# Measurements from patent US7087627B1, “Combinations for the treatment of diseases involving angiogenesis” (Angiogene Pharmaceuticals Ltd., priority 1999, dated 2006).
# Tests used:
# SaS tumours = assay: Induction of necrosis in SaS tumours; assay type: in vivo; settings: SaS tumour-bearing mice, tumours excised after 24 h, mean score 1-10 by area of necrosis
# Protocol: Mice bearing either CaNT or SaS tumours were treated with the test compound and tumours excised after 24 h, fixed in formalin, embedded in paraffin, sectioned and stained with haematoxylin and eosin. Sections were scored based on area of necrosis as follows:
# In this assay the effect of a given dose of either a vascular damaging agent or a nitric oxide synthase inhibitor administered alone can be compared with the effect of a combination of the two agents.
# CaNT tumours = assay: Tumour functional vascular volume measured by fluorescent dye Hoechst 33342; assay type: in vivo; settings: CaNT tumour-bearing mice; CA4P 25 mg/kg alone, intra peritoneal; 24 hours after treatment
# Protocol: Activity Against Tumour Vasculature Measured by Fluorescent Dye.
# Tumour functional vascular volume in CaNT tumour-bearing mice was measured using the fluorescent dye Hoechst 33342 according to the method of Smith et al (Brit J Cancer 57, 247–253, 1988). The fluorescent dye was dissolved in saline at 6.25 mg/ml and injected intravenously at 10 mg/kg 24 hours after intra peritoneal drug treatment. One minute later, animals were killed and tumours excised and frozen; 10 μm sections were cut at 3 different levels and observed under UV illumination using an Olympus microscope equipped with epifluorescence. Blood vessels were identified by their fluorescent outlines and vascular volume was quantified using a point scoring system based on that described by Chalkley, (J Natl Cancer Inst, 4, 47–53, 1943). All estimates were based on counting a minimum of 100 fields from sections cut at the 3 different levels.
Compound,Necrosis score ± SEM (n) (SaS tumours; AMP 10 mg/kg alone),Necrosis score ± SEM (n) (SaS tumours; CA4P 500 mg/kg alone),Vascular Volume % ± SEM (n) (CaNT tumours)
"Cc1ccnc(N)c1 [AMP, 2-amino-4-methylpyridine]",1.0,–,–
"COc1ccc(/C=C\c2cc(OC)c(OC)c(OC)c2)cc1OP(=O)(O)O [CA4P, Combretastatin A4 phosphate]",–,1.7 ± 0.7,1.03 ± 0.14 (4) %
